# Earlier results as cited in patent US20240170163A1, “SYSTEMS AND METHODS FOR DETECTING NEW DRUG PROPERTIES IN TARGET-BASED DRUG-DRUG SIMILARITY NETWORKS” (priority 2021, published 2024).
# Tests used:
# Klebsiella pneumoniae = conditions: in vitro
# Candida albicans = conditions: in vitro
# Candida = conditions: liquid formulation, in vitro
# prostate carcinoma cells = conditions: in vitro
# [1] = system: chronic lymphocytic leukemia (CLL)
# [2] = system: PR-transfected MDA-MB-231 cells
smiles,measurement,setting,value
N=C(N)NC(=O)c1nc(Cl)c(N)nc1N [Amiloride],activation of the dendritic cells,dendritic cells,inhibits the activation
same,inflammation,dendritic cells; besides its diuretic effects,ameliorates the inflammation
FC(F)OC(Cl)C(F)(F)F (stereo not shown) [Isoflurane],inhibitory effects on cultures of Klebsiella pneumoniae,Klebsiella pneumoniae,excellent inhibitory effects
same,inhibitory effects on cultures of Candida albicans,Candida albicans,excellent inhibitory effects
same,anti-Candida activity compared with Amphotericin B,Candida,better anti-Candida activity
COC(F)(F)C(Cl)Cl [Methoxyflurane],inhibitory effects on cultures of Klebsiella pneumoniae,Klebsiella pneumoniae,excellent inhibitory effects
same,inhibitory effects on cultures of Candida albicans,Candida albicans,excellent inhibitory effects
NC(Cn1ccc(=O)c(O)c1)C(=O)O (stereo not shown) [Mimosine],cell proliferation of prostate carcinoma cells,prostate carcinoma cells,attenuates cell proliferation
COc1cc([C@@H]2c3cc4c(cc3[C@H](O)[C@H]3COC(=O)[C@H]23)OCO4)cc(OC)c1OC [Podofilox],cytotoxicity in chronic lymphocytic leukemia (CLL),[1],potent cytotoxic agent
CC(=O)[C@H]1CC[C@H]2[C@@H]3CCC4=CC(=O)CC[C@]4(C)[C@H]3CC[C@]12C [Progesterone],expression of genes involved in cell proliferation and metastasis,[2],suppressed the expression
CCN(CC)CCCC(C)Nc1c2ccc(Cl)cc2nc2ccc(OC)cc12 (stereo not shown) [Quinacrine],DNA damage in breast cancer,breast cancer,induces DNA damage
same,apoptosis / cell cycle effect in breast cancer,breast cancer,produces apoptosis by blocking cells in S-phase
same,topoisomerase activity in breast cancer,breast cancer,inhibits topoisomerase activity
